Test results from paper PMC9555310, “Novel inhibitors and activity-based probes targeting serine proteases” (Frontiers in Chemistry, 2022).

Columns and labels:
thrombin = target: T1, thrombin (Homo sapiens, UniProt P00734); experiment: Activity-based profiling of thrombin (SDS-PAGE, streptavidin-HRP western blot); assay type: binding; details: pre-treatment 30 min, 37°C
T1 construct: apparent molecular mass of 31 kDa, corresponding to the heavy (catalytic) chain of the protease; purchased R&D Systems
Experimental: Samples of recombinant protease (trypsin, plasmin, thrombin, chymotrypsin, or HNE, as indicated in the relevant figure legends) were treated with each of the newly synthesized compounds at a concentration of 50 μM, for 30 min, at 37°C. A control sample (no ABP) was prepared by treating the recombinant protease with solvent vehicle (DMF) only, used to prepare the stock solution of each ABP. Samples were also pre-treated (±90°C for 30 min) before being incubated with each putative ABP. With trypsin and thrombin, further samples were prepared where Z-Arg^P-(OPh)2 or NAP559, respectively, was added 30 min prior to the addition of the ABP under examination. All treated samples were then denatured with SDS containing reducing treatment buffer (10 min at 95°C), followed by resolution by SDS-PAGE and subjected to Western blotting. Resolved proteins were then transferred onto the nitrocellulose membrane and labeled with streptavidin-HRP. The ABP–protease complex was then visualized following treatment with Luminata Forte HRP substrate.
FIGURE 8 Activity Based Profiling of Trypsin-like serine proteases. (A) trypsin was treated (±) with NAP830, for 30 min, at 37°C (± pretreatment with Z-Arg^P-(OPh)2). (B) thrombin (1 […]) was pre-treated with various concentrations of NAP559 (30 min, at 37°C) followed by treatment (±) with NAP858 for 30 min, at 37°C. (C) Plasmin was treated in turn with QUBTL1, NAP962 and NAP830, (± pre-heat inactivation at 95°C, for 10 min) for 30 min, at 37°C. […]
Following transfer, the extra protein binding sites on the membrane were blocked by addition of 3% (w/v) BSA in TBST (20 mM Tris, 137 mM NaCl, 1% (v/v) Tween 20, pH 7.6) and agitated gently at room temperature for 30 minutes. The biotin-labelled proteases were then detected by addition of Streptavidin-HRP (Vector Laboratories) in 3% (w/v) BSA in TBST at a concentration of 1:20000, for 1 hour at room temperature. […]

NE in CF Sol samples = target: T2, NE in CF Sol samples (Homo sapiens, UniProt P08246); experiment: Fluorogenic substrate assay of elastase-like activity in CF Sol; assay type: biochemical; details: 50 μM; CF Sol sample 26w at 2.5% (v/v); PBS pH 7.4, 37°C; 60 min
T2 construct: from tissue; host or cells: Cystic Fibrosis (CF) Sol samples 26w and 41w from patients
T2 sequence (P08246 30-267): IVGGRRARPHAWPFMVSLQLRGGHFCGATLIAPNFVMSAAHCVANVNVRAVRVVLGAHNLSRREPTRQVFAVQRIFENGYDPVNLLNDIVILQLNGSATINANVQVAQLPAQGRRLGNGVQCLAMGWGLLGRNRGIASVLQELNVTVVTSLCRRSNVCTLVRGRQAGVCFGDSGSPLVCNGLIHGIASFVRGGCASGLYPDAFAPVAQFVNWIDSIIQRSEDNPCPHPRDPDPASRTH
Experimental: FIGURE 7 Activity Based Profiling of serine proteases by peptide N-Alkyl glycine carbamates. (A,B) record the results for the incubation of NE with NAP800 and chymotrypsin with NAP849. NE and Chymotrypsin were treated (±) with NAP800 and NAP849, respectively (± pre-heat inactivation at 95°C, for 10 min), for 30 min, at 37°C. (C) Determination of NE levels in CF samples using fluorogenic substrate assay. NE assays were carried out in PBS, pH 7.4, at 37°C. CF Sol (sample 26w) was used at a final concentration of 2.5% (v/v), and the level of NE contained therein was measured using Succinyl-Ala-Ala-Pro-Val-NHMec (50 μM), in the absence (-- o --) and presence (-- o --) of NAP800 (50 μM). (D) Activity based profiling of CF Sol using NAP800. CF Sol samples 26w and 41w were treated (+) with 50 μM NAP800 (+ pre-heat inactivation at 95°C, for 10 min), for 30 min, at 37°C.
Initially, as a quick screen, a fluorogenic enzyme assay was performed on CF Sol samples, using the elastase fluorogenic substrate MeO-Succinyl-Ala-Ala-Pro-Val-NHMec, the results of one such experiment (performed on sample 26w) is recorded in Figure 7C.

Row | effect of pre-treatment of thrombin on 31 kDa band disclosed by NAP858 (thrombin; 10 and 50 μM) | Structure (SMILES) | effect of pre-treatment of thrombin on 31 kDa band disclosed by NAP858 (thrombin; 1 μM) | blockade of MeO-Succinyl-Ala-Ala-Pro-Val-NHMec cleavage in CF Sol (NE in CF Sol samples)
1 | almost completely extinguished | N=C(N)NCCCN(CC(=O)N1CCC[C@H]1C(=O)N(CC(N)=O)Cc1ccccc1)C(=O)ON1C(=O)CCC1=O [NAP559, Succinimidoyl-CO-NArg-D-Pro-NPhe-NH2] | slight but a discernible diminution in the intensity of the band | –
2 | – | CC(C)N(CC(=O)NCC(=O)NCC(=O)NCCCOCCOCCOCCCNC(=O)CCCCC1SCC2NC(=O)NC21)C(=O)ON1C(=O)CCC1=O (stereo not drawn) [NAP800, Succinimidoyl-CO-NVal-Gly-Gly-PEG-Biotin] | – | progressive and ultimately complete blockade of substrate cleavage
